From publication PMC9863901, “CX08005, a Protein Tyrosine Phosphatase 1B Inhibitor, Attenuated Hepatic Lipid Accumulation and Microcirculation Dysfunction Associated with Nonalcoholic Fatty Liver Disease” (Pharmaceuticals, 2023)

Target: T1, Protein tyrosine phosphatase 1B (PTP1B) (Homo sapiens, UniProt P18031)
T1 construct: gene PTPN1; recombinant human His-PTP1B protein
T1 sequence (P18031 1-435): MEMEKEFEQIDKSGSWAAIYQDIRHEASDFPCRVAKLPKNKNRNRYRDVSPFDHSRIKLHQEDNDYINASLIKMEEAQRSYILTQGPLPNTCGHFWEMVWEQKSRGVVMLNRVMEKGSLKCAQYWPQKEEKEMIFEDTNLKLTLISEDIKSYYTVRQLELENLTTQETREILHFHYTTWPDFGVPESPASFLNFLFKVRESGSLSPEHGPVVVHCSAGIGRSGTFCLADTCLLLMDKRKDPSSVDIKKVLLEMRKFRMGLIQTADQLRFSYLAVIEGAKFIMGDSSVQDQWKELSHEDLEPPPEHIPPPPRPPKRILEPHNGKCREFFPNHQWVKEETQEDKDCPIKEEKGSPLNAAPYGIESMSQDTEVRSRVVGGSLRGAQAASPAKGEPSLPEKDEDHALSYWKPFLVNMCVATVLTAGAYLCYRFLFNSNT
Assay: pNPP phosphatase assay with recombinant His-PTP1B, absorbance at […] nm
Assay type: biochemical

## CCCCCCCCCCCCCCOc1ccccc1NC(=O)c1ccccc1C(=O)O [CX08005]
  IC50: 0.75 ± 0.07 µM
